Measured values: patent US20020137929A1, “1 - (3-heterocyclylphenyl) isothiourea, -isourea, -guanidine and -amidine herbicidal agents” (Intellectual Property Department, BASF Aktiengesellschaft, priority 1998, published 2002)

Columns and labels:
[1] = tested on: IPOHE (Morningglory, Ivyleaf); assay: Preemergence herbicidal evaluation; assay type: in vivo, Ipomoea hederacea; conditions: rated 4-5 weeks after treatment
Procedure, shortened: (§1)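 Each species is sown separately in potting soil over roughly an inch of soil before any emergence. The soil surface then receives an aqueous acetone spray delivering about 0.0156 to 0.500 kg/ha of compound. After four to five weeks, injury is scored from 0 to 9 relative to a control.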

MOOVA (Monochoria) = assay: Preemergence weed control under flooded paddy conditions; assay type: in vivo, Monochoria vaginalis; conditions: rated 3-4 weeks after treatment
Procedure, shortened: (§2)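 First, seeds or propagules go into the top 0.5 cm of silt loam; next, water is held 1.5 to 3 cm over the soil; then compound (50/50 acetone/water) is pipetted into it at about 0.0313 to 0.500 kg/ha; finally plants are rated visually 0-9 after three to four weeks.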

CYPIR (Rice Flatsedge) = assay: as above; assay type: in vivo, Cyperus iria; conditions: rated 3-4 weeks after treatment
Procedure, shortened: as §2

ECHCG (Barnyardgrass) = assay: Preemergence herbicidal evaluation; assay type: in vivo, Echinochloa crus-galli; conditions: rated 4-5 weeks after treatment
Procedure, shortened: as §1

[2] = tested on: TRZAWR (Wheat, Winter, cv Riband); assay: Postemergence herbicidal evaluation; assay type: in vivo, Triticum aestivum
Procedure, shortened: (§3)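 Seedlings grown about two weeks were sprayed at 40 psi with compound dispersed in 50/50 acetone/water plus 0.5% TWEEN 20, at about 0.0156 to 0.500 kg/ha. Plants were kept in the greenhouse and scored 4–5 weeks later on a 0–9 visual scale against untreated controls.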

SETVI (Foxtail, Green) [3] = assay: Preemergence herbicidal evaluation; assay type: in vivo, Setaria viridis; conditions: rated 4-5 weeks after treatment
Procedure, shortened: as §1

[4] = tested on: SAGPY (Arrowhead (Pygmaea)); assay: Postemergence weed control under flooded paddy conditions; assay type: in vivo, Sagittaria pygmaea; conditions: postemergence weeds
Procedure, shortened: (§4)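 Flood-water application, about 0.0313–0.500 kg/ha a.i. in aqueous/acetone 50/50 v/v; water depth 1.5–3 cm throughout. Weeds 3–5 cm, rice 1.5–2.5 leaf. Greenhouse; 0–9 visual rating vs control at 3–4 wk.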

ABUTH (Velvetleaf) = assay: Preemergence herbicidal evaluation; assay type: in vivo, Abutilon theophrasti; conditions: rated 4-5 weeks after treatment
Procedure, shortened: as §1

[5] = tested on: ECHORC (Watergrass (Calif.)); assay: Postemergence weed control under flooded paddy conditions; assay type: in vivo, Echinochloa oryzoides; conditions: postemergence weeds
Procedure, shortened: as §4

ZEAMX (Corn, Field) = assay: Preemergence herbicidal evaluation; assay type: in vivo, Zea mays; conditions: rated 4-5 weeks after treatment
Procedure, shortened: as §1

[6] = tested on: IPOHE (Morningglory, Ivyleaf); assay: Postemergence herbicidal evaluation; assay type: in vivo, Ipomoea hederacea
Procedure, shortened: as §3

GALAP (Galium) = assay: Postemergence herbicidal evaluation; assay type: in vivo, Galium aparine
Procedure, shortened: as §3

[7] = tested on: ECHORC (Watergrass (Calif.)); assay: Preemergence weed control under flooded paddy conditions; assay type: in vivo, Echinochloa oryzoides; conditions: rated 3-4 weeks after treatment
Procedure, shortened: as §2

SETVI (Foxtail, Green) [8] = assay: Postemergence herbicidal evaluation; assay type: in vivo, Setaria viridis
Procedure, shortened: as §3

[9] = Rate 0.0313 kg/ha, rated 3 to 4 weeks after treatment
[10] = Rate 0.0625 kg/ha, rated 3 to 4 weeks after treatment
[11] = Rate 0.1250 kg/ha, rated 3 to 4 weeks after treatment
[12] = Rate 0.2500 kg/ha, rated 3 to 4 weeks after treatment
[13] = rate 0.0313 kg/ha, 3-4 weeks after treatment
[14] = rate 0.0625 kg/ha, 3-4 weeks after treatment
[15] = rate 0.1250 kg/ha, 3-4 weeks after treatment
[16] = rate 0.2500 kg/ha, 3-4 weeks after treatment

CCOC(=O)CN1C(=O)C(CC(=O)OC(C)C)SC1=Nc1cc(-n2c(=O)cc(C(F)(F)F)n(C)c2=O)c(F)cc1Cl (stereo not shown) [Compound 60, 2-{{2-Chloro-5-[3,6-dihydro-3-methyl-2,6-dioxo-4-(trifluoromethyl)-1(2H)-pyrimidinyl]-4-fluoro-phenyl}imino}-4-oxo-3,5-thiazolidinediacetic acid, 3-ethyl isopropyl ester]
Preemergence herbicidal rating IPOHE ([1]; rate 0.0156 kg/ha): 0.0 | Preemergence herbicidal rating IPOHE ([1]; rate 0.0313 kg/ha): 0.0 | Preemergence herbicidal rating IPOHE ([1]; rate 0.0625 kg/ha): 0.0 | Preemergence herbicidal rating IPOHE ([1]; rate 0.1250 kg/ha): 2.0 | Preemergence herbicidal rating IPOHE ([1]; rate 0.2500 kg/ha): 5.0 | Preemergence herbicidal rating IPOHE ([1]; rate 0.5000 kg/ha): 9.0 | MOOVA herbicidal effect rating (MOOVA (Monochoria); 0.0313 kg/ha): 9.0 | MOOVA herbicidal effect rating (MOOVA (Monochoria); 0.0625 kg/ha): 9.0 | MOOVA herbicidal effect rating (MOOVA (Monochoria); 0.1250 kg/ha): 9.0 | MOOVA herbicidal effect rating (MOOVA (Monochoria); 0.2500 kg/ha): 9.0 | CYPIR herbicidal effect rating (CYPIR (Rice Flatsedge); 0.0313 kg/ha): 3.0 | CYPIR herbicidal effect rating (CYPIR (Rice Flatsedge); 0.0625 kg/ha): 3.0 | CYPIR herbicidal effect rating (CYPIR (Rice Flatsedge); 0.1250 kg/ha): 6.0 | CYPIR herbicidal effect rating (CYPIR (Rice Flatsedge); 0.2500 kg/ha): 6.0 | Preemergence herbicidal rating ECHCG (ECHCG (Barnyardgrass); rate 0.0156 kg/ha): 0.0 | Preemergence herbicidal rating ECHCG (ECHCG (Barnyardgrass); rate 0.0313 kg/ha): 0.0 | Preemergence herbicidal rating ECHCG (ECHCG (Barnyardgrass); rate 0.0625 kg/ha): 0.0 | Preemergence herbicidal rating ECHCG (ECHCG (Barnyardgrass); rate 0.1250 kg/ha): 0.0 | Preemergence herbicidal rating ECHCG (ECHCG (Barnyardgrass); rate 0.2500 kg/ha): 0.5 | Preemergence herbicidal rating ECHCG (ECHCG (Barnyardgrass); rate 0.5000 kg/ha): 2.0 | Postemergence herbicidal rating TRZAWR ([2]; Rate 0.0158 kg/ha): 4.5 | Postemergence herbicidal rating TRZAWR ([2]; Rate 0.0315 kg/ha): 4.5 | Postemergence herbicidal rating TRZAWR ([2]; Rate 0.0630 kg/ha): 4.5 | Preemergence herbicidal rating SETVI (SETVI (Foxtail, Green) [3]; rate 0.0156 kg/ha): 0.0 | Preemergence herbicidal rating SETVI (SETVI (Foxtail, Green) [3]; rate 0.0313 kg/ha): 0.5 | Preemergence herbicidal rating SETVI (SETVI (Foxtail, Green) [3]; rate 0.0625 kg/ha): 0.5 | Preemergence herbicidal rating SETVI (SETVI (Foxtail, Green) [3]; rate 0.1250 kg/ha): 4.5 | Preemergence herbicidal rating SETVI (SETVI (Foxtail, Green) [3]; rate 0.2500 kg/ha): 4.5 | Preemergence herbicidal rating SETVI (SETVI (Foxtail, Green) [3]; rate 0.5000 kg/ha): 8.0 | Herbicidal rating SAGPY [4, 9]: 3.0 | Herbicidal rating SAGPY [4, 10]: 4.0 | Herbicidal rating SAGPY [4, 11]: 9.0 | Herbicidal rating SAGPY [4, 12]: 9.0 | Preemergence herbicidal rating ABUTH (ABUTH (Velvetleaf); rate 0.0156 kg/ha): 2.0 | Preemergence herbicidal rating ABUTH (ABUTH (Velvetleaf); rate 0.0313 kg/ha): 9.0 | Preemergence herbicidal rating ABUTH (ABUTH (Velvetleaf); rate 0.0625 kg/ha): 7.0 | Preemergence herbicidal rating ABUTH (ABUTH (Velvetleaf); rate 0.1250 kg/ha): 9.0 | Preemergence herbicidal rating ABUTH (ABUTH (Velvetleaf); rate 0.2500 kg/ha): 9.0 | Preemergence herbicidal rating ABUTH (ABUTH (Velvetleaf); rate 0.5000 kg/ha): 9.0 | Herbicidal rating ECHORC [5, 9]: 7.0 | Herbicidal rating ECHORC [5, 10]: 9.0 | Herbicidal rating ECHORC [5, 11]: 9.0 | Herbicidal rating ECHORC [5, 12]: 9.0 | Preemergence herbicidal rating ZEAMX (ZEAMX (Corn, Field); rate 0.0156 kg/ha): 0.0 | Preemergence herbicidal rating ZEAMX (ZEAMX (Corn, Field); rate 0.0313 kg/ha): 0.0 | Preemergence herbicidal rating ZEAMX (ZEAMX (Corn, Field); rate 0.0625 kg/ha): 0.5 | Preemergence herbicidal rating ZEAMX (ZEAMX (Corn, Field); rate 0.1250 kg/ha): 1.5 | Preemergence herbicidal rating ZEAMX (ZEAMX (Corn, Field); rate 0.2500 kg/ha): 3.0 | Preemergence herbicidal rating ZEAMX (ZEAMX (Corn, Field); rate 0.5000 kg/ha): 8.0 | Postemergence herbicidal rating IPOHE ([6]; Rate 0.0158 kg/ha): 9.0 | Postemergence herbicidal rating IPOHE ([6]; Rate 0.0315 kg/ha): 9.0 | Postemergence herbicidal rating IPOHE ([6]; Rate 0.0630 kg/ha): 9.0 | Postemergence herbicidal rating GALAP (GALAP (Galium); Rate 0.0158 kg/ha): 0.0 | Postemergence herbicidal rating GALAP (GALAP (Galium); Rate 0.0315 kg/ha): 2.0 | Postemergence herbicidal rating GALAP (GALAP (Galium); Rate 0.0630 kg/ha): 5.0 | ECHORC herbicidal effect rating ([7]; 0.0313 kg/ha): 7.0 | ECHORC herbicidal effect rating ([7]; 0.0625 kg/ha): 9.0 | ECHORC herbicidal effect rating ([7]; 0.1250 kg/ha): 9.0 | ECHORC herbicidal effect rating ([7]; 0.2500 kg/ha): 9.0 | Postemergence herbicidal rating SETVI (SETVI (Foxtail, Green) [8]; Rate 0.0158 kg/ha): 0.0 | Postemergence herbicidal rating SETVI (SETVI (Foxtail, Green) [8]; Rate 0.0315 kg/ha): 4.0 | Postemergence herbicidal rating SETVI (SETVI (Foxtail, Green) [8]; Rate 0.0630 kg/ha): 5.0

CCOC(=O)CN1C(=O)C(Cc2ccccc2OC(C)C(=O)OC)SC1=Nc1cc(-n2c(=O)cc(C(F)(F)F)n(C)c2=O)c(F)cc1Cl (stereo not shown) [Compound 50, 2-{{2-Chloro-5-[3,6-dihydro-3-methyl-2,6-dioxo-4-(trifluoromethyl)-1(2H)-pyrimidinyl]-4-fluoro-phenyl}imino}-5-(o-hydroxybenzyl)-4-oxo-3-thiazolidineacetic acid, ethyl ester, ester with methyl lactate]
Preemergence herbicidal rating IPOHE ([1]; rate 0.0625 kg/ha): 0.0 | Preemergence herbicidal rating IPOHE ([1]; rate 0.1250 kg/ha): 0.0 | Preemergence herbicidal rating IPOHE ([1]; rate 0.2500 kg/ha): 0.0 | Herbicidal rating MOOVA (MOOVA (Monochoria); 0.0313 kg/ha): 0.0 | Herbicidal rating MOOVA (MOOVA (Monochoria); 0.0625 kg/ha): 0.0 | Herbicidal rating MOOVA (MOOVA (Monochoria); 0.1250 kg/ha): 3.0 | Herbicidal rating MOOVA (MOOVA (Monochoria); 0.2500 kg/ha): 7.0 | Herbicidal rating CYPIR (CYPIR (Rice Flatsedge); 0.0313 kg/ha): 0.0 | Herbicidal rating CYPIR (CYPIR (Rice Flatsedge); 0.0625 kg/ha): 0.0 | Herbicidal rating CYPIR (CYPIR (Rice Flatsedge); 0.1250 kg/ha): 0.0 | Herbicidal rating CYPIR (CYPIR (Rice Flatsedge); 0.2500 kg/ha): 0.0 | Preemergence herbicidal rating ECHCG (ECHCG (Barnyardgrass); rate 0.0625 kg/ha): 0.0 | Preemergence herbicidal rating ECHCG (ECHCG (Barnyardgrass); rate 0.1250 kg/ha): 0.0 | Preemergence herbicidal rating ECHCG (ECHCG (Barnyardgrass); rate 0.2500 kg/ha): 0.0 | Postemergence herbicidal rating TRZAWR ([2]; Rate 0.0156 kg/ha): 3.0 | Postemergence herbicidal rating TRZAWR ([2]; Rate 0.0313 kg/ha): 3.5 | Postemergence herbicidal rating TRZAWR ([2]; Rate 0.0625 kg/ha): 4.5 | Preemergence herbicidal rating SETVI (SETVI (Foxtail, Green) [3]; rate 0.0625 kg/ha): 0.0 | Preemergence herbicidal rating SETVI (SETVI (Foxtail, Green) [3]; rate 0.1250 kg/ha): 0.0 | Preemergence herbicidal rating SETVI (SETVI (Foxtail, Green) [3]; rate 0.2500 kg/ha): 0.0 | Herbicidal rating SAGPY [4, 13]: 2.0 | Herbicidal rating SAGPY [4, 14]: 2.0 | Herbicidal rating SAGPY [4, 15]: 3.0 | Herbicidal rating SAGPY [4, 16]: 3.0 | Preemergence herbicidal rating ABUTH (ABUTH (Velvetleaf); rate 0.0625 kg/ha): 9.0 | Preemergence herbicidal rating ABUTH (ABUTH (Velvetleaf); rate 0.1250 kg/ha): 9.0 | Preemergence herbicidal rating ABUTH (ABUTH (Velvetleaf); rate 0.2500 kg/ha): 9.0 | Herbicidal rating ECHORC [5, 13]: 4.0 | Herbicidal rating ECHORC [5, 14]: 7.0 | Herbicidal rating ECHORC [5, 15]: 7.0 | Herbicidal rating ECHORC [5, 16]: 7.0 | Preemergence herbicidal rating ZEAMX (ZEAMX (Corn, Field); rate 0.0625 kg/ha): 0.0 | Preemergence herbicidal rating ZEAMX (ZEAMX (Corn, Field); rate 0.1250 kg/ha): 0.0 | Preemergence herbicidal rating ZEAMX (ZEAMX (Corn, Field); rate 0.2500 kg/ha): 0.0 | Postemergence herbicidal rating IPOHE ([6]; Rate 0.0156 kg/ha): 9.0 | Postemergence herbicidal rating IPOHE ([6]; Rate 0.0313 kg/ha): 9.0 | Postemergence herbicidal rating IPOHE ([6]; Rate 0.0625 kg/ha): 9.0 | Postemergence herbicidal rating GALAP (GALAP (Galium); Rate 0.0156 kg/ha): 0.0 | Postemergence herbicidal rating GALAP (GALAP (Galium); Rate 0.0313 kg/ha): 2.0 | Postemergence herbicidal rating GALAP (GALAP (Galium); Rate 0.0625 kg/ha): 4.0 | Herbicidal rating ECHORC ([7]; 0.0313 kg/ha): 4.0 | Herbicidal rating ECHORC ([7]; 0.0625 kg/ha): 7.0 | Herbicidal rating ECHORC ([7]; 0.1250 kg/ha): 7.0 | Herbicidal rating ECHORC ([7]; 0.2500 kg/ha): 7.0 | Postemergence herbicidal rating SETVI (SETVI (Foxtail, Green) [8]; Rate 0.0156 kg/ha): 0.0 | Postemergence herbicidal rating SETVI (SETVI (Foxtail, Green) [8]; Rate 0.0313 kg/ha): 0.0 | Postemergence herbicidal rating SETVI (SETVI (Foxtail, Green) [8]; Rate 0.0625 kg/ha): 2.0
